Target: T1, Chitinase B (Serratia marcescens, UniProt P11797)
T1 sequence (P11797 whole entry): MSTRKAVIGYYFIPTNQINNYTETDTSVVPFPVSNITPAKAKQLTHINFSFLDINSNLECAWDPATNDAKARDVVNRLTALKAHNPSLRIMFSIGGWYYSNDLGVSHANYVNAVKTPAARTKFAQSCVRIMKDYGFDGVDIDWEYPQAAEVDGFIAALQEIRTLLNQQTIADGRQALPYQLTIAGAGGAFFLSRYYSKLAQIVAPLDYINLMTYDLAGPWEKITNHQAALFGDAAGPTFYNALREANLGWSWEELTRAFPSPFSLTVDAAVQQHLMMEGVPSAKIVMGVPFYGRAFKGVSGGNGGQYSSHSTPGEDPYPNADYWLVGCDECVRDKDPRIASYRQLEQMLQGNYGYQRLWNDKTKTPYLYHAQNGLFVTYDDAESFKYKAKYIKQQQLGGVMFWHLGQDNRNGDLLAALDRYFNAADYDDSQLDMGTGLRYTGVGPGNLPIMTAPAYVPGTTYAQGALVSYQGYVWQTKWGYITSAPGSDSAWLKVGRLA
Test: Inhibition of Serratia marcescens chitinase B

Compound | IC50
CNC(=O)NC(=N)NCCC[C@@H]1NC(=O)[C@@H](Cc2c[nH]c3ccccc23)NC(=O)C[C@@H](C(=O)O)NC(=O)C[C@@H](C(=O)O)NC(=O)[C@H](Cc2ccccc2)N(C)C1=O | 4.5 µM
CNC(=O)NC(N)=NCCC[C@@H]1NC(=O)[C@@H](Cc2ccccc2)NC(=O)C[C@@H](C(=O)O)NC(=O)C[C@@H](C(=O)O)NC(=O)[C@H](Cc2ccccc2)N(C)C1=O | 9.9 µM
CNC(=O)NC(N)=NCCC[C@@H]1NC(=O)[C@@H](CC(C)C)NC(=O)C[C@@H](C(=O)N2CCC(Cc3ccccc3)CC2)NC(=O)C[C@@H](C(=O)O)NC(=O)[C@H](Cc2ccccc2)N(C)C1=O | 0.23 µM
CNC(=O)NC(N)=NCCC[C@@H]1NC(=O)[C@@H](C)NC(=O)C[C@@H](C(=O)N2CCC(Cc3ccccc3)CC2)NC(=O)C[C@@H](C(=O)O)NC(=O)[C@H](Cc2ccccc2)N(C)C1=O | 1.3 µM
CNC(=O)NC(N)=NCCC[C@@H]1NC(=O)[C@@H](C(C)C)NC(=O)C[C@@H](C(=O)O)NC(=O)C[C@@H](C(=O)O)NC(=O)[C@H](Cc2ccccc2)N(C)C1=O | 6.1 µM
CNC(=O)NC(N)=NCCC[C@@H]1NC(=O)[C@@H](CC(C)C)NC(=O)C[C@@H](C(=O)O)NC(=O)C[C@@H](C(=O)O)NC(=O)[C@H](Cc2ccccc2)N(C)C1=O | 1.9 µM
CNC(=O)NC(=N)NCCC[C@@H]1NC(=O)[C@@H](CCSC)NC(=O)C[C@@H](C(=O)O)NC(=O)C[C@@H](C(=O)O)NC(=O)[C@H](Cc2ccccc2)N(C)C1=O | 10 µM
